From ChEMBL document CHEMBL1201862, “PubChem BioAssay data set” (2004) come the findings set out here.

Among the test systems are MCF7; MDA-MB-231; EKVX; NCI-H23; OVCAR-5; SK-OV-3; PC-3; UO-31; DU-145; NCI/ADR-RES; UACC-257; SF-539; K562; RPMI-8226; SK-MEL-5; HCT-15; A498; A549; Malme-3M; SNB-75.
Holding throughout (assay): inhibition of tumour cell growth, NCI panel, 48 h

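96-well plates; 48 h exposure; 5 concentrations. Endpoints by linear interpolation between flanking doses. Not reached: highest tested concentration assigned. GI50: concentration for 50% inhibition of growth.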 The source made the active and inactive calls. Rule as the data show it: active = GI50 up to about 1.1 µM and inactive = higher.

In the case of `OCC(O)COCn1cc(Cn2ncc3c(SCc4ccccc4)ncnc32)nn1` (stereo not drawn), the GI50 in the assay with MCF7, with MDA-MB-231, with EKVX, with NCI-H23, in the assay on OVCAR-5 and with SK-OV-3 was > 100 µM (inactive) in each case. Further, the GI50 with PC-3, with UO-31, in the assay on DU-145, in the assay with NCI/ADR-RES, with UACC-257 and with SF-539 was > 100 µM (inactive) each time. Besides, the GI50 was > 100 µM (inactive) in the assay with K562; > 100 µM (inactive) in the assay with RPMI-8226; > 100 µM (inactive) in the assay with SK-MEL-5; more than 100 µM in the assay on HCT-15; > 100 µM (inactive) with A498; > 100 µM (inactive) with A549.

In the case of `O=c1c2ccccc2nc(N/N=C/c2ccc(Cl)cc2)n1-c1ccccc1`, the GI50 is > 100 µM (inactive) in the assay on MCF7; 93.3 µM (inactive) in the assay on MDA-MB-231; > 100 µM (inactive) in the assay on EKVX; > 100 µM (inactive) with NCI-H23; > 100 µM (inactive) in the assay on OVCAR-5; > 100 µM (inactive) with SK-OV-3. The GI50 with PC-3 was 49.5 µM (inactive); in the assay with UO-31 it was 62.4 µM (inactive); in the assay on DU-145 it was > 100 µM (inactive); with NCI/ADR-RES, > 100 µM (inactive); in the assay on UACC-257, > 100 µM (inactive); in the assay on Malme-3M, > 100 µM (inactive). Further, the GI50 in the assay on SF-539 was 97.3 µM (inactive); in the assay on K562, > 100 µM (inactive); in the assay with SK-MEL-5, > 100 µM (inactive); with SNB-75, 0.0269 µM (active); with HCT-15, 89.9 µM; with A498, > 100 µM (inactive). Also, the GI50 with A549 was > 100 µM (inactive).

In the case of `COC(=O)c1ccccc1C1CN=NC12Cc1cc(C)c(C)cc1C2=O` (stereo not drawn), the GI50 is 24.4 µM (inactive) with MCF7; 27.2 µM (inactive) with MDA-MB-231; 42.1 µM (inactive) in the assay with EKVX; 29.1 µM (inactive) in the assay with NCI-H23; > 100 µM (inactive) in the assay with OVCAR-5; 40.3 µM (inactive) in the assay on SK-OV-3. The GI50 is 32.1 µM (inactive) with PC-3; 30.3 µM (inactive) in the assay on UO-31; > 100 µM (inactive) in the assay on DU-145; 23.6 µM (inactive) with NCI/ADR-RES; 14.5 µM (inactive) with UACC-257; 52.4 µM (inactive) in the assay on Malme-3M. Further, the GI50 in the assay with SF-539 is 84.3 µM (inactive); with K562 it was 20 µM (inactive); in the assay with SK-MEL-5, 18.7 µM (inactive); in the assay on SNB-75, 29.9 µM (inactive); in the assay on HCT-15 it was 32.7 µM; in the assay with A498, 25.8 µM (inactive). Also, the GI50 in the assay with A549 is 37.8 µM (inactive).

Consider `COc1ccc(N)c(C(O)CCNC(C)=O)c1` (stereo not drawn), for which the GI50 in the assay with MCF7, with MDA-MB-231, in the assay on EKVX, with NCI-H23, in the assay with OVCAR-5 and in the assay on SK-OV-3 was > 100 µM (inactive) throughout. For the same compound, the GI50 with PC-3, in the assay on UO-31, in the assay with DU-145, with NCI/ADR-RES, in the assay with UACC-257 and in the assay with SF-539 was > 100 µM (inactive) throughout. For the same compound, the GI50 was > 100 µM (inactive) in the assay on RPMI-8226; > 100 µM (inactive) in the assay with SK-MEL-5; > 100 µM (inactive) in the assay on SNB-75; more than 100 µM in the assay on HCT-15; > 100 µM (inactive) in the assay on A498; > 100 µM (inactive) in the assay with A549.

For `O=C(CCc1cc(O)cc(O)c1)NCCc1ccc(O)c(O)c1`, the GI50 with MCF7, with MDA-MB-231, in the assay with EKVX, in the assay on NCI-H23, with OVCAR-5 and with SK-OV-3 was > 100 µM (inactive) in each case. Also, the GI50 in the assay on PC-3, in the assay with UO-31, with DU-145, in the assay with NCI/ADR-RES, in the assay on UACC-257 and in the assay with SF-539 was > 100 µM (inactive) in each case. The GI50 with K562 is > 10 µM (inactive); in the assay on RPMI-8226 it was > 100 µM (inactive); in the assay on SK-MEL-5, > 100 µM (inactive); in the assay on SNB-75, > 100 µM (inactive); with HCT-15 it was more than 100 µM; in the assay with A498, > 100 µM (inactive). Besides, the GI50 in the assay with A549 was > 100 µM (inactive).

Regarding `Nc1nc(N)nc(-c2cnccn2)n1`, the GI50 in the assay with MCF7 was > 100 µM (inactive); in the assay on MDA-MB-231 it was 53 µM (inactive); in the assay with EKVX it was > 100 µM (inactive); with NCI-H23, > 100 µM (inactive); in the assay on OVCAR-5, 57.1 µM (inactive); in the assay on SK-OV-3, > 100 µM (inactive). The GI50 with PC-3, in the assay with UO-31, in the assay on DU-145, in the assay on NCI/ADR-RES, in the assay with UACC-257 and in the assay with Malme-3M was > 100 µM (inactive) each time. Moreover, the GI50 with SF-539 was > 100 µM (inactive); in the assay with K562, > 100 µM (inactive); in the assay on SNB-75, > 100 µM (inactive); in the assay on HCT-15, more than 100 µM; in the assay with A498, > 100 µM (inactive); in the assay on A549, > 100 µM (inactive).

Consider `C1=C\SS/C=C\SS/C=C\SS/C=C\SS/1`, for which the GI50 in the assay on MCF7 is 46.7 µM (inactive); with MDA-MB-231, > 100 µM (inactive); in the assay on EKVX, > 100 µM (inactive); with NCI-H23, > 100 µM (inactive); in the assay with OVCAR-5, > 100 µM (inactive); with SK-OV-3, > 100 µM (inactive). Besides, the GI50 with PC-3 was > 100 µM (inactive); with UO-31, > 100 µM (inactive); with DU-145 it was > 100 µM (inactive); with NCI/ADR-RES, > 100 µM (inactive); in the assay on UACC-257, 78.5 µM (inactive); with Malme-3M, 41.7 µM (inactive). The GI50 was 27.9 µM (inactive) in the assay on K562; 58.7 µM (inactive) in the assay with RPMI-8226; 99.3 µM (inactive) with SK-MEL-5; 21.5 µM in the assay on HCT-15; > 100 µM (inactive) in the assay with A498; > 100 µM (inactive) with A549.

Turning to `Cc1ccc(-n2cc(-c3ccc(Cl)cc3)c3c2N=CN2N=C(c4cccs4)NC32)cc1` (stereo not drawn), the GI50 in the assay on MCF7 was 32.5 µM (inactive); with MDA-MB-231, 4.52 µM (inactive); in the assay with EKVX it was 18.1 µM (inactive); in the assay on NCI-H23 it was 15.3 µM (inactive); with OVCAR-5, 11.1 µM (inactive); in the assay with SK-OV-3, 14.9 µM (inactive). In addition, the GI50 is 16.5 µM (inactive) in the assay on PC-3; 7.64 µM (inactive) in the assay on UO-31; > 100 µM (inactive) with DU-145; 9.68 µM (inactive) in the assay with NCI/ADR-RES; 38.9 µM (inactive) with UACC-257; 38.4 µM (inactive) in the assay on Malme-3M. Also, the GI50 in the assay on SF-539 was 16.2 µM (inactive); in the assay on K562, 11.7 µM (inactive); in the assay with SK-MEL-5, > 100 µM (inactive); in the assay on SNB-75 it was 8.38 µM (inactive); in the assay on HCT-15, 51.8 µM; with A498, 14.7 µM (inactive). In the assay with A549, the GI50 is 21.9 µM (inactive).
